Experimental data reported in patent US20040171680A1, “Treating Syndrome X with substituted tetralins and indanes” (priority 2002, published 2004).
pEC50: −log10 of the molar value.

Target: T1, PPARα (Rattus norvegicus, UniProt P37230)
T1 construct: H4IIE rat hepatoma cell line was obtained from ATCC; host or cells: H4IIE rat hepatoma cells
T1 sequence (P37230 1-468): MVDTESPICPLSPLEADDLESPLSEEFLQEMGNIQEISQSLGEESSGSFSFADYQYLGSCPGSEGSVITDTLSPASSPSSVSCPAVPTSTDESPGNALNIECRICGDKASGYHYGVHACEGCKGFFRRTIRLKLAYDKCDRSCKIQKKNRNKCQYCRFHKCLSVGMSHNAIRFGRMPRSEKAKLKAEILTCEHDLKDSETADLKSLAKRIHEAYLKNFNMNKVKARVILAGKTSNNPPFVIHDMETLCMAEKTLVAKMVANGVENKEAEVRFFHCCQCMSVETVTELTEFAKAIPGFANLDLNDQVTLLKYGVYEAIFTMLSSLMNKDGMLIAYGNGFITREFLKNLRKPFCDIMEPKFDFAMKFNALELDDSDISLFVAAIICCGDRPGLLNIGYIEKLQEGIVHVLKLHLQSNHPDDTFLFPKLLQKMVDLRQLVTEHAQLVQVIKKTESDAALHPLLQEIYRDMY
Assay: HD bDNA Assay (HD gene induction)
Type: cell-based
Settings: in section F; target not named there, values match the PPARα column; read-out: EC50
How it was run: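 H4IIE rat hepatoma cells (~100,000/well) treated 24 hours at 37° C in low-serum medium (5% charcoal/dextran-treated calf serum) with compounds. HD mRNA quantified by branched DNA luminescence assay; EC50's from sigmoidal non-linear regression.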

pEC50: 8.00
SMILES: CCN(C(=O)Nc1ccc(OC(F)(F)F)cc1)C1CCc2cc(SC(C)(C)C(=O)O)c(F)cc2C1 (stereo not shown) [Example 50, 2-{6-[1-Ethyl-3-(4-trifluoromethoxyphenyl)ureido]-3-fluoro-5,6,7,8-tetrahydronaphthalen-2-ylsulfanyl}-2-methylpropionic acid]
